Target: T1, SARS-CoV-2 M^pro (wild type) (Severe acute respiratory syndrome coronavirus 2, UniProt P0DTD1)
T1 construct: gene rep; mature nsp5 cut from replicase polyprotein 1ab (also pp1a); homodimer; purification details only in supplement
Format: biochemical

Question: How did the IC50 turn out when AVI-8053 was run?
Answer: Its IC50 is 0.019 µM.

Source: article PMC10042146, “SARS-CoV-2 M^pro Protease Variants of Concern Display Altered Viral Substrate and Cell Host Target Galectin-8 Processing but Retain Sensitivity toward Antivirals” (ACS Central Science, 2023)
